Columns and labels:
Type in all cases: cell-based
[1] = test system: 1205Lu cells; assay: Photographic assessment of cell death (FIGS. 12 and 13)
Description: The broken lines shown in FIGS. 12 and 13 demarcate live cells from dead cells. The portions shown with asterisks represent the dead cells.

[2] = test system: 1205Lu melanoma cells; assay: IC50 of tirapazamine for melanoma cells; conditions: Homo sapiens
[3] = test system: HIF1α; assay: HIF1α expression under hypoxia (FIG. 14)
Description: HIF1α is a transcription factor that enhances transcription of many metastasis related genes. The expression of HIF1α usually increases under hypoxic conditions.

[4] = test system: 1205Lu C×43 (C); assay: Number of viable cells after treatment (FIG. 11); conditions: normoxia; tirapazamine at 28.5 μM
Procedure: (§1) The cell lines shown in FIG. 11 include: 1205Lu plasmid (P), 1205Lu […]), 1205Lu-[…] (T). […] The cells were treated with non-thermal plasma (NTP), tirapazamine at 28.5 μM (TPZ), or the combination (NTP/TPZ). […] (T) but not for 1205Lu plasmid (P). […] Under […], all treatments (NTP, TPZ and NTP/TPZ) cause a decrease in cell number from the original number of cells (6×10^6) to approximately (3×10^6) for all melanoma cell lines. Under hypoxia, TPZ causes a decrease in cell number from the original number of cells (6×10^6) to approximately (1.2-0.6×10^5). Under hypoxia, NTP/TPZ causes a decrease from the original number of cells (6×10^6) to approximately (0.1-0.03×10^5). […] In addition, the target area of the NTP torch dramatically increases under these conditions. The ROS generated by NTP and tirapazamine induces the bystander effect and promotes the spreading of cell death signals well beyond the area of the plasma treatment. Upon treatment for 24 hours with NTP+/- tirapazamine at normal conditions (normoxia) or hypoxic conditions (hypoxia), the combination of NTP+/- tirapazamine enhances cell death under hypoxia. Furthermore, the area in which the plasma torch affects the cells increases only in the cells overexpressing the functional gap junctions.

[5] = test system: 1205Lu-T154A (T); assay: Number of viable cells after treatment (FIG. 11); conditions: normoxia; tirapazamine at 28.5 μM
Procedure: as §1

[6] = test system: 1205Lu plasmid (P); assay: Number of viable cells after treatment (FIG. 11); conditions: normoxia; tirapazamine at 28.5 μM
Procedure: as §1

Nc1n[n+]([O-])c2ccccc2[n+]1[O-] [TPZ, 3-Aminobenzo[e][1,2,4]triazine 1,4-dioxide]
cell toxicity (FIG. 13) ([1]; hypoxia): induces cell toxicity only under hypoxic conditions | effect on cells (FIG. 12) ([1]; normal oxygen conditions): no effect | IC50 [2]: 28.5 µM | expression of HIF1α compared with control ([3]; cell line C): decrease | expression of HIF1α compared with control ([3]; cell line P): increase | expression of HIF1α compared with control ([3]; cell line T): increase | change in viable cells [4]: decrease in viable cells | change in viable cells [5]: decrease in viable cells | change in viable cells [6]: decrease in viable cells

Reference: patent US9586056B2, “Combination therapy for treating cancer and method for treating cancer using a combination therapy” (Haniva LLC, priority 2014, dated 2017)
